Assay results: patent US12679850B2, “TYK2 inhibitors and uses thereof” (Alumis Inc., priority 2020, dated 2026)

Key:
[1] = molecular target: T1, human TYK2 (JH2domain-pseudokinase) (Homo sapiens, UniProt P29597); experiment: TYK2 JH2 domain binding assay (KINOMEscan); settings: 11-point 3-fold dilution, top concentration 30,000 nM, duplicate
T1 construct: host or cells: transiently transfected HEK293 cells; unpurified extract used
Protocol: Binding constants for the compounds described herein against the JH2 domain were determined by the following protocol for a KINOMEscan® assay (DiscoveRx). A fusion protein of a partial length construct of human TYK2 (JH2domain-pseudokinase) (amino acids G556 to D888 based on reference sequence NP_003322.3) and the DNA binding domain of NFkB is expressed in transiently transfected HEK293 cells. From these HEK 293 cells, extracts are prepared in M-PER extraction buffer (Pierce) in the presence of Protease Inhibitor Cocktail Complete (Roche) and Phosphatase Inhibitor Cocktail Set II (Merck) per manufacturers' instructions. The TYK2 (JH2domain-pseudokinase) fusion protein is labeled with a chimeric double-stranded DNA tag containing the NFkB binding site fused to an amplicon for qPCR readout, which is added directly to the expression extract (the final concentration of DNA-tag in the binding reaction is 0.1 nM). […]
The binding reaction is assembled by combining 16 μl of DNA-tagged kinase extract, 3.8 μl liganded affinity beads, and 0.18 μl test compound (PBS/0.05% Tween 20/10 mM DTT/0.1% BSA/2 μg/ml sonicated salmon sperm DNA)]. […] Kds were determined using an 11-point 3-fold compound dilution series with three DMSO control points. […]
Test compounds are prepared as 111× stocks in 100% DMSO. Kds were determined using an 11-point 3-fold compound dilution series with three DMSO control points. […]

[2] = tested on: pSTAT5 in Human PBMC; experiment: INFα induced pSTAT5 in human PBMC; assay type: cell-based; settings: fresh human PBMC, compound 1 hour, INFα 5000 units/ml for 15 minutes, MSD Phospho STAT5 kit; read-out: p-STAT5 IC50
Protocol: Fresh Human PBMCs were resuspended in RPMI 1640 medium with 10% FBS. Cells were seeded in a round bottom 96-well plate at the concentration of 200,000 cells/well. A 10-point dilution series of test compound (top dose 10 uM, 1:5 dilution) was added to the well using the liquid dispenser (Tecan D300e) and incubated for 1 hour at 37 C. Then human INFα recombinant protein (R&D Systems) was added to the well at the final concentration of 5000 units/ml and incubated for 15 minutes at 37 C. Cell lysates were prepared and analyzed by Phospho STAT5 (Tyr693) Kit (Meso Scale Discovery) following manufacturer's protocol.
For calculation of the inhibition rate, the relative pSTAT5 signal of each well=pSTAT5 signal of each well−the average pSTAT5 signal of baseline.
The inhibition %=(the average pSTAT5 signal of INFα treatment wells−the relative of pSTAT5 signal in each compound containing well)/the average pSTAT5 signal of INFα treatment wells*100%
The curve was plotted as the inhibition % (y-axis) vs. compounds concentration (x-axis) and was fitted with log(inhibitor) vs. normalized response—Variable slope by GraphPad Prism7.0.

T1 sequence (P29597 556-888): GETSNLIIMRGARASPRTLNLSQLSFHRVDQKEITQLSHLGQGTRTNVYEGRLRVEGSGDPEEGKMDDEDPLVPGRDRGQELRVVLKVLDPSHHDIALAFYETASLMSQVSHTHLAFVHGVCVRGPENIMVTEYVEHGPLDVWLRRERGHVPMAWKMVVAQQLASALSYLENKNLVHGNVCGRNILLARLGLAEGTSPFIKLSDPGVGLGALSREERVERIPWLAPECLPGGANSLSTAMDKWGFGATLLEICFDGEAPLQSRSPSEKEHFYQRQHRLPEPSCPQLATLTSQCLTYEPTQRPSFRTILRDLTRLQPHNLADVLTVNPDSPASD

Compound: [2H]C([2H])([2H])n1nnc2c3cc(cc21)CO[C@@H]1CCC[C@H]1NC(=O)c1cnc2c(NC)cc(nn12)N3 [Example 1]
- Kd [1]: 0.0022 nM
- IC50 [2]: 1.7 nM
